Assay results taken from patent US20240122212A1 (SUNTORY HOLDINGS LIMITED, priority 2020, published 2024).

Tests used:
[1] = Basic taste quality sensory evaluation by trained panelists, spitting test, against 6% sucrose control (Example 1); assay type: in vivo, human; conditions: scale −3 to 3, 0 = no difference from 6% sucrose control; D-allulose 8.57 w/v %, D-arabinose 10 w/v % in pure water; 4 panelists
Description: In each evaluation item, the rating on a scale of −3 point to 3 point was performed, with the case where there is no difference from the control solution being 0. Quicker in sweetness onset, higher sweetness intensity, shorter lingering sweet aftertaste, lower bitterness intensity, and shorter lingering bitter aftertaste compared to the control were rated near 3 points. Slower in sweetness onset, lower sweetness intensity, longer lingering sweet aftertaste, higher bitterness intensity, and longer lingering bitter aftertaste compared to the control were rated near −3 points. That is, the closer to 0 point, the closer to the control. The evaluation was carried out by those (4 persons) who received sensory trainings as panelists by spitting test. The amount of a sweet substance contained in each sample solution was adjusted to be equal to the control solution on the calculation. […] The energy (kcal/100 ml) was calculated from the amount of the sweetener added.

[2] = Degree of sweetness relative to sucrose; conditions: for degree of sweetness, median value: median of the range, sucrose = 1; for degree of sweetness at sweetness intensity of 0.3, times as much as that of sucrose: sweetness intensity 0.3; for degree of sweetness at sweetness intensity of 4.3, times as much as that of sucrose: sweetness intensity 4.3
Excerpt: The “sweetness intensity” means an intensity of sweetness of a substance. […] A numerical value obtained by multiplying the degree of sweetness by a concentration Brix value of glucose is the sweetness intensity of glucose in terms of sucrose. Thus, when a concentration of glucose in terms of sucrose is Brix 1.5, the sweetness intensity of glucose is 0.65×1.5=0.975. The sweetness intensity of a sweetener in terms of sucrose can be calculated from a degree of sweetness shown in the following table or a value of a known degree of sweetness.
For example, when the sweetness intensity of sucrose per unit concentration Brix 1 is defined as a degree of sweetness of 1, a degree of sweetness of rebaudioside D is about 200 to 250 (median value 225), a degree of sweetness of rebaudioside M is about 200 to 260 (median value 230), a degree of sweetness of rebaudioside B is about 325, a degree of sweetness of rebaudioside A is about 200 to 300 (median value 250), a degree of sweetness of rebaudioside N is about 200 to 250 (median value 225), a degree of sweetness of rebaudioside O is about 200 to 250 (median value 225), a degree of sweetness of rebaudioside E is about 70 to 80 (median value 75), a degree of sweetness of a Luo han guo extract (containing 40% of Mog V) is about 110 to 150 (median value 130), a degree of sweetness of mogroside V is about 240 to 300 (median value 270), and a degree of sweetness of thaumatin is about 2,000, and a degree of sweetness of brazzein is about 500 to 2,000 (median value 1,250). The numerical value obtained by multiplying these degrees of sweetness by a concentration (w/v % (considered to be the same as w/w % in the case of a beverage)) of the high-intensity sweetener in a fruit juice beverage is a sweetness intensity of the high-intensity sweetener. The relative ratio in degrees of sweetness of various sweeteners to the degree of sweetness of 1 of sucrose can be determined from a known sugar sweetness conversion table, and the like. In the present description, when a degree of sweetness is shown in a numerical value range, the median value may be used. However, a sweetener having different values in a degree of sweetness by literatures, a relative ratio in a degree of sweetness to the degree of sweetness of 1 of sucrose can be defined by a sensory test. Examples of such a sensory test include a method in which samples were prepared by adding sucrose having a sweetness intensity of Brix 3.0 to 5.0 in 0.5 increments to pure water, and of which a sucrose-added sample having a sweetness intensity equal to an aqueous solution of a sweetener in a predetermined concentration is selected.
Additionally, for a sweetener with a variable degree of sweetness as a sweetness intensity increases, degrees of sweetness in different concentrations are actually measured and plotted whereby a degree of sweetness in a predetermined concentration may be calculated from the obtained approximate curve.

[3] = value used to design the sample solutions

## O=C(CO)[C@H](O)[C@H](O)[C@H](O)CO [D-Allulose]
[1]
  Bitterness intensity: −1 point
  Lingering bitter aftertaste: −0.625 point
  Lingering sweet aftertaste: 0.125 point
  Quickness in sweetness onset: 0.125 point
  Sweetness intensity: −0.125 point
[2]; [3]
  degree of sweetness, times as much as that of sucrose: 0.7 times

## C[C@H](CC[C@@H](O[C@@H]1O[C@H](CO[C@@H]2O[C@H](CO)[C@@H](O)[C@H](O)[C@H]2O)[C@@H](O)[C@H](O)[C@H]1O[C@@H]1O[C@H](CO)[C@@H](O)[C@H](O)[C@H]1O)C(C)(C)O)[C@H]1CC[C@@]2(C)[C@@H]3CC=C4[C@@H](CC[C@H](O[C@@H]5O[C@H](CO[C@@H]6O[C@H](CO)[C@@H](O)[C@H](O)[C@H]6O)[C@@H](O)[C@H](O)[C@H]5O)C4(C)C)[C@]3(C)[C@H](O)C[C@]12C [mogroside V]
[2]
  degree of sweetness, median value: 270

## C=C1C[C@@]23CC[C@H]4[C@@](C)(CCC[C@@]4(C)C(=O)O[C@@H]4O[C@H](CO)[C@@H](O)[C@H](O[C@@H]5O[C@H](CO)[C@@H](O)[C@H](O)[C@H]5O)[C@H]4O[C@@H]4O[C@@H](C)[C@H](O)[C@@H](O[C@@H]5O[C@H](CO)[C@@H](O)[C@H](O)[C@H]5O)[C@H]4O)[C@@H]2CC[C@]1(O[C@@H]1O[C@H](CO)[C@@H](O)[C@H](O[C@@H]2O[C@H](CO)[C@@H](O)[C@H](O)[C@H]2O)[C@H]1O[C@@H]1O[C@H](CO)[C@@H](O)[C@H](O)[C@H]1O)C3 [rebaudioside O]
[2]
  degree of sweetness, median value: 225

## O=C[C@H](O)[C@@H](O)[C@H](O)[C@H](O)CO [Glucose]
[2]
  degree of sweetness, median value: 0.65

## C=C1C[C@@]23CC[C@H]4[C@@](C)(CCC[C@@]4(C)C(=O)O[C@@H]4O[C@H](CO)[C@@H](O)[C@H](O)[C@H]4O[C@@H]4O[C@H](CO)[C@@H](O)[C@H](O)[C@H]4O)[C@@H]2CC[C@]1(O[C@@H]1O[C@H](CO)[C@@H](O)[C@H](O[C@@H]2O[C@H](CO)[C@@H](O)[C@H](O)[C@H]2O)[C@H]1O[C@@H]1O[C@H](CO)[C@@H](O)[C@H](O)[C@H]1O)C3 [rebaudioside D]
[2]
  degree of sweetness, median value: 225
[2]; [3]
  degree of sweetness at sweetness intensity of 0.3, times as much as that of sucrose: 100 times
  degree of sweetness at sweetness intensity of 4.3, times as much as that of sucrose: 190.5 times

## C=C1C[C@@]23CC[C@H]4[C@@](C)(CCC[C@@]4(C)C(=O)O[C@@H]4O[C@H](CO)[C@@H](O)[C@H](O)[C@H]4O)[C@@H]2CC[C@]1(O[C@@H]1O[C@H](CO)[C@@H](O)[C@H](O[C@@H]2O[C@H](CO)[C@@H](O)[C@H](O)[C@H]2O)[C@H]1O[C@@H]1O[C@H](CO)[C@@H](O)[C@H](O)[C@H]1O)C3 [rebaudioside A]
[2]
  degree of sweetness, median value: 250
[2]; [3]
  degree of sweetness at sweetness intensity of 0.3, times as much as that of sucrose: 100 times
  degree of sweetness at sweetness intensity of 4.3, times as much as that of sucrose: 190.5 times

## C=C1C[C@@]23CC[C@H]4[C@@](C)(CCC[C@@]4(C)C(=O)O[C@@H]4O[C@H](CO)[C@@H](O)[C@H](O)[C@H]4O[C@@H]4O[C@H](CO)[C@@H](O)[C@H](O)[C@H]4O)[C@@H]2CC[C@]1(O[C@@H]1O[C@H](CO)[C@@H](O)[C@H](O)[C@H]1O[C@@H]1O[C@H](CO)[C@@H](O)[C@H](O)[C@H]1O)C3 [rebaudioside E]
[2]
  degree of sweetness, median value: 75

## C=C1C[C@@]23CC[C@H]4[C@@](C)(CCC[C@@]4(C)C(=O)O[C@@H]4O[C@H](CO)[C@@H](O)[C@H](O[C@@H]5O[C@H](CO)[C@@H](O)[C@H](O)[C@H]5O)[C@H]4O[C@@H]4O[C@H](CO)[C@@H](O)[C@H](O)[C@H]4O)[C@@H]2CC[C@]1(O[C@@H]1O[C@H](CO)[C@@H](O)[C@H](O[C@@H]2O[C@H](CO)[C@@H](O)[C@H](O)[C@H]2O)[C@H]1O[C@@H]1O[C@H](CO)[C@@H](O)[C@H](O)[C@H]1O)C3 [rebaudioside M]
[2]
  degree of sweetness, median value: 230
[2]; [3]
  degree of sweetness at sweetness intensity of 0.3, times as much as that of sucrose: 100 times
  degree of sweetness at sweetness intensity of 4.3, times as much as that of sucrose: 190.5 times

## brazzein: sweet protein of Pentadiplandra brazzeana (QDKCKKVYENYPVSKCQLANQCNYDCKLDKHARSGECFYDEKRNLQCICDYCEY; UniProt P56552 1-54, looked up)
[2]
  degree of sweetness, median value: 1,250

## C=C1C[C@@]23CC[C@H]4[C@@](C)(CCC[C@@]4(C)C(=O)O[C@@H]4O[C@H](CO)[C@@H](O)[C@H](O[C@@H]5O[C@H](CO)[C@@H](O)[C@H](O)[C@H]5O)[C@H]4O[C@@H]4O[C@@H](C)[C@H](O)[C@@H](O)[C@H]4O)[C@@H]2CC[C@]1(O[C@@H]1O[C@H](CO)[C@@H](O)[C@H](O[C@@H]2O[C@H](CO)[C@@H](O)[C@H](O)[C@H]2O)[C@H]1O[C@@H]1O[C@H](CO)[C@@H](O)[C@H](O)[C@H]1O)C3 [rebaudioside N]
[2]
  degree of sweetness, median value: 225
